Test results taken from ChEMBL document CHEMBL4257571, “Discovery of 5-(2-chloro-4'-(1H-imidazol-1-yl)-[1,1'-biphenyl]-4-yl)-1H-tetrazole as potent and orally efficacious S-nitrosoglutathione reductase (GSNOR) inhibitors for the potential treatment of COPD” (Bioorg Med Chem Lett, 2018).
pIC50: −log10 of the molar value.

Key:
[1] = target: T1, Alcohol dehydrogenase class-3 (Homo sapiens, UniProt P11766); test: Inhibition of human GSNOR assessed as reduction in NADH consumption after 3 mins by spectrophotometric analysis
Target sequence in this assay (P11766 whole entry): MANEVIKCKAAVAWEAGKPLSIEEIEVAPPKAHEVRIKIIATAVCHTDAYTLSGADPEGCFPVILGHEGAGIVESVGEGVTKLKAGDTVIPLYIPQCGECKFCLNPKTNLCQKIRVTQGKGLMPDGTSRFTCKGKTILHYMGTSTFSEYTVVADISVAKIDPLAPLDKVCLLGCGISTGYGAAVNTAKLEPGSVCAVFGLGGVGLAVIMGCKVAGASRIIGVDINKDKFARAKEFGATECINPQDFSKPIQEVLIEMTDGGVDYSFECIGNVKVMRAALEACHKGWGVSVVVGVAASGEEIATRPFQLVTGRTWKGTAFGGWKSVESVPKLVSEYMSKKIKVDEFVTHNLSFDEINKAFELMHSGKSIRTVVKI

CYP3A4 = CYP3A4 (Homo sapiens, UniProt P08684); test: Inhibition of CYP3A4 in human liver microsomes at 10 uM after 20 mins in presence of NADPH by LC/MS/MS analysis relative to control; assay type: ADME; settings: liver microsomes
CYP3A4, sequence (P08684 whole entry): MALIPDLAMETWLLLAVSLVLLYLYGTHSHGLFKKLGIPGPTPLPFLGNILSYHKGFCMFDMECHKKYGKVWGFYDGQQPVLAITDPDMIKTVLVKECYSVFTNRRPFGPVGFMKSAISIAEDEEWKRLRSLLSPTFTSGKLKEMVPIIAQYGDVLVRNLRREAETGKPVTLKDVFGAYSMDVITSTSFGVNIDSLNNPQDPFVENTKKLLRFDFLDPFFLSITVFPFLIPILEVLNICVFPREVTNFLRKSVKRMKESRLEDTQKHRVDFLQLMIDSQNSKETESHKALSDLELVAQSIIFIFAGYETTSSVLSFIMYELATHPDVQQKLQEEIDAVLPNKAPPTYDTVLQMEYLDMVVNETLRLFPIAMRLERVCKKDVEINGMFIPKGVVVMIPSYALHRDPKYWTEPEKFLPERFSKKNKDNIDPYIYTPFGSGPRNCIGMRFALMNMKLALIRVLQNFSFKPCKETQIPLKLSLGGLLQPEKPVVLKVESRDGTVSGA

CYP1A2 = target: T2, CYP1A2 (Homo sapiens, UniProt P05177); test: Inhibition of CYP1A2 in human liver microsomes at 10 uM after 20 mins in presence of NADPH by LC/MS/MS analysis relative to control; assay type: ADME; settings: liver microsomes
T2 sequence (P05177 whole entry): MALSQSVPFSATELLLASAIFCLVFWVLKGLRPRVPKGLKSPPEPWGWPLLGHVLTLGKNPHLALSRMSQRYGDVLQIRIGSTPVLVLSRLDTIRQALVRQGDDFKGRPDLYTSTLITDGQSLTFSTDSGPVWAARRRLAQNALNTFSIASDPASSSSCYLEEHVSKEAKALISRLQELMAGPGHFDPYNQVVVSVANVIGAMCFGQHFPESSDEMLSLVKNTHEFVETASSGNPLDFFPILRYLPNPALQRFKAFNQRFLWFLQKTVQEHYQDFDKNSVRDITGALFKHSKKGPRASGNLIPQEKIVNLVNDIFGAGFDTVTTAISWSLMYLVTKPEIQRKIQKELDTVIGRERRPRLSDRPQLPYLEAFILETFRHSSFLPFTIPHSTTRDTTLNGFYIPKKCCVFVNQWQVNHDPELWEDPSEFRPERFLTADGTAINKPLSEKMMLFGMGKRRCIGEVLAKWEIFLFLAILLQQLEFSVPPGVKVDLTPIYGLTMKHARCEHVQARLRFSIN

[2] = Metabolic stability of human liver microsomes assessed as parent compound remaining at 0.1 uM after 60 mins in presence of NADPH by LC/MS/MS analysis; assay type: ADME, microsome; settings: read-out: Stability
CYP2C9 = CYP2C9 (Homo sapiens, UniProt P11712); test: Inhibition of CYP2C9 in human liver microsomes at 10 uM after 20 mins in presence of NADPH by LC/MS/MS analysis relative to control; assay type: ADME
CYP2C9, sequence (P11712 whole entry): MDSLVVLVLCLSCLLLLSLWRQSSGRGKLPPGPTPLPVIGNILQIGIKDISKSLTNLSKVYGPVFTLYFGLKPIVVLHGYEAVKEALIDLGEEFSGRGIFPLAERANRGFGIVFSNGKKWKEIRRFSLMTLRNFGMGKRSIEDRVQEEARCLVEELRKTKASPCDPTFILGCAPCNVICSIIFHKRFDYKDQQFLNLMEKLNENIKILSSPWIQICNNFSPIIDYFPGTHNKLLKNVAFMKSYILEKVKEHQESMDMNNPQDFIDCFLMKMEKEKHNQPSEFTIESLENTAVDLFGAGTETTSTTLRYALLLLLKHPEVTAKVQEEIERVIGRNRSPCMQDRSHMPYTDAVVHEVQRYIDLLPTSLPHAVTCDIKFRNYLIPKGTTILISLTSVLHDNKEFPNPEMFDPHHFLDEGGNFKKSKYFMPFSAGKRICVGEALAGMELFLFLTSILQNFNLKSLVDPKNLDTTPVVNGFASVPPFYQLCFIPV

[3] = Metabolic stability of mouse liver microsomes assessed as parent compound remaining at 0.1 uM after 60 mins in presence of NADPH by LC/MS/MS analysis; assay type: ADME, microsome; settings: read-out: Stability
[4] = Metabolic stability of rat liver microsomes assessed as parent compound remaining at 0.1 uM after 60 mins in presence of NADPH by LC/MS/MS analysis; assay type: ADME, microsome; settings: read-out: Stability
CYP2D6 = CYP2D6 (Homo sapiens, UniProt P10635); test: Inhibition of CYP2D6 in human liver microsomes at 10 uM after 20 mins in presence of NADPH by LC/MS/MS analysis relative to control; assay type: ADME; settings: liver microsomes
CYP2D6, sequence (P10635 whole entry): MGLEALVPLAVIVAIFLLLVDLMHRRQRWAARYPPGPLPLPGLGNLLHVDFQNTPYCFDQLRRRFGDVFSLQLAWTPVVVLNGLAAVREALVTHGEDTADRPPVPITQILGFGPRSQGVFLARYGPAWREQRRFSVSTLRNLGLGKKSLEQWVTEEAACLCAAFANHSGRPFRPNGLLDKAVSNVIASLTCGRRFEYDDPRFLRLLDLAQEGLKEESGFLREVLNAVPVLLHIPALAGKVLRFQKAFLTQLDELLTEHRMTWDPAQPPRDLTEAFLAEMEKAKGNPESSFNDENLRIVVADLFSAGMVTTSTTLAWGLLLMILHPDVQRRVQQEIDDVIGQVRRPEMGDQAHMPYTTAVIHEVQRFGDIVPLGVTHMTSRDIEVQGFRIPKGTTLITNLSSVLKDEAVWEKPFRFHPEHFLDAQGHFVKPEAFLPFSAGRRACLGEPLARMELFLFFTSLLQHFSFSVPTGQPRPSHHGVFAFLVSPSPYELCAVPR

CYP2C19 = CYP2C19 (Homo sapiens, UniProt P33261); test: Inhibition of CYP2C19 in human liver microsomes at 10 uM after 40 mins in presence of NADPH by LC/MS/MS analysis relative to control; assay type: ADME
CYP2C19, sequence (P33261 whole entry): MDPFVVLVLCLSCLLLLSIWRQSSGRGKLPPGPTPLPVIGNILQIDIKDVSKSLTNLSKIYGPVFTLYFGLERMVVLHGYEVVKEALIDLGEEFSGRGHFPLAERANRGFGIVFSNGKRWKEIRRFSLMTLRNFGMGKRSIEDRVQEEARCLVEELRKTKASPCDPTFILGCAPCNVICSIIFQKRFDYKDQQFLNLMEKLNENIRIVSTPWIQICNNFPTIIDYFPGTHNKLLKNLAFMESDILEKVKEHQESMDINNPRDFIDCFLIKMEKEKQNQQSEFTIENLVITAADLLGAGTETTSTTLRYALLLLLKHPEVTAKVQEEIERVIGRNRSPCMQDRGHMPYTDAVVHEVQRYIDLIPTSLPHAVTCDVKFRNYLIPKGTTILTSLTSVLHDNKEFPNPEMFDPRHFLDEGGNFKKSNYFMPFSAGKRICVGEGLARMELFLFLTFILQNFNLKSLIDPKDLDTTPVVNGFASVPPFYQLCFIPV

[5] = target: T1, Alcohol dehydrogenase class-3; test: Inhibition of human GSNOR assessed as reduction in NADH consumption at 10 uM after 3 mins by spectrophotometric analysis relative to control
Target sequence in this assay (P11766 2-374 limits assumed): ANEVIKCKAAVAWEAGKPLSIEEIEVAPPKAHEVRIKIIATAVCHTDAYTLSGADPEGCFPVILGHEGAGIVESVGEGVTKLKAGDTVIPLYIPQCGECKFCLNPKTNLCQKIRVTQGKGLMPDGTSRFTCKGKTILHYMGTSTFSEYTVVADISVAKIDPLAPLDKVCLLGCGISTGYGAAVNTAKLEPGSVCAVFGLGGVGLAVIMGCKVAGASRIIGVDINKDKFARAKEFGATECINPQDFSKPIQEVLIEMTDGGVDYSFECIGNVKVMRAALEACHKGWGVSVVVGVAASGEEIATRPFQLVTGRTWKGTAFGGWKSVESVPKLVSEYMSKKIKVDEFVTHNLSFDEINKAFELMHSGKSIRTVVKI

[6] = Volume of distribution in C57/BL6 mouse at 3 mg/kg, iv; assay type: ADME, organism-based; settings: in vivo, read-out: Vz
[7] = Half life in C57/BL6 mouse at 3 mg/kg, iv; assay type: ADME, organism-based; settings: in vivo
[8] = Cmax in C57/BL6 mouse at 30 mg/kg, po; assay type: ADME, organism-based; set-up: dose 30 mg/kg, route oral; settings: in vivo
[9] = Oral bioavailability in C57/BL6 mouse at 30 mg/kg; assay type: ADME, organism-based; settings: in vivo
[10] = AUC (0 to 24 hrs) in C57/BL6 mouse at 30 mg/kg, po; assay type: ADME, organism-based; set-up: time < 24 hr, dose 30 mg/kg, route oral; settings: in vivo
[11] = Clearance in C57/BL6 mouse at 3 mg/kg, iv; assay type: ADME, organism-based; settings: in vivo
[12] = Ratio of drug uptake in lung to plasma of C57/BL6 mouse at 3 mg/kg, iv or 30 mg/kg, po; assay type: ADME, organism-based
[13] = Tmax in C57/BL6 mouse at 30 mg/kg, po; assay type: ADME, organism-based; settings: in vivo
[14] = Half life in C57/BL6 mouse at 30 mg/kg, po; assay type: ADME, organism-based; settings: in vivo

| Compound | pIC50 [1] | inhibition at 20 min, 10 µM (CYP3A4) [%] | inhibition at 20 min, 10 µM (CYP1A2) [%] | inhibition at 20 min, 10 µM (CYP2C9) [%] | inhibition at 20 min, 10 µM (CYP2D6) [%] | inhibition at 40 min, 10 µM (CYP2C19) [%] | other results |
| --- | --- | --- | --- | --- | --- | --- | --- |
| c1cc(-c2nn[nH]n2)ccc1-c1ccc(-c2nnn[nH]2)cc1 | 5.48 |  |  |  |  |  |  |
| Cc1nccn1-c1ccc(-c2ccc(-c3nnn[nH]3)cc2)cc1 | 7.01 | -2 | 10 | 18 | 37 | 33 | remaining at 1 h, 0.1 µM [2]: 63%; remaining at 1 h, 0.1 µM [3]: 92%; remaining at 1 h, 0.1 µM [4]: 82% |
| O=C(O)c1ccc(-c2ncc(-n3ccnc3)cc2Cl)cc1 | 7.05 |  |  |  |  |  |  |
| O=C(O)c1ccc(-c2ccc(O)cc2)cc1 |  |  |  |  |  |  | inhibition [5]: 25% |
| Cc1cc(-c2nnn[nH]2)ccc1-c1ncc(-n2ccnc2)cc1Cl | 6.03 |  |  |  |  |  |  |
| O=C(O)c1ccc(-c2ccc(-n3ccnc3)cc2)cc1 | 7.21 |  |  |  |  |  |  |
| c1cn(-c2cnc(-c3ccc(-c4nnn[nH]4)cc3)c(C3CCCCC3)c2)cn1 | 7.13 |  |  |  |  |  |  |
| CCc1cc(-n2ccnc2)cnc1-c1ccc(-c2nnn[nH]2)cc1F | 7.21 |  |  |  |  |  |  |
| O=C(O)c1ccc(-c2ccc(-n3ccnc3)cc2Cl)cc1 | 7.23 |  |  |  |  |  |  |
| N#Cc1ccc(-c2ccc(-c3nn[nH]n3)cc2)cc1 |  |  |  |  |  |  | inhibition [5]: 27% |

Second part, led by results:

| pIC50 [1] | inhibition at 20 min, 10 µM (CYP3A4) [%] | inhibition at 20 min, 10 µM (CYP1A2) [%] | inhibition at 20 min, 10 µM (CYP2C9) [%] | inhibition at 20 min, 10 µM (CYP2D6) [%] | inhibition at 40 min, 10 µM (CYP2C19) [%] | Compound | other results |
| --- | --- | --- | --- | --- | --- | --- | --- |
| 7.66 | 54 | 74 | 77 | 73 | 69 | c1cn(-c2ccc(-c3ccc(-c4nn[nH]n4)cc3)cc2)cn1 | remaining at 1 h, 0.1 µM [2]: 66%; remaining at 1 h, 0.1 µM [3]: 31%; remaining at 1 h, 0.1 µM [4]: 58% |
| 7.59 |  |  |  |  |  | Cc1cc(-c2nnn[nH]2)ccc1-c1ccc(-n2ccnc2)cc1 |  |
| 7.36 |  |  |  |  |  | Cc1cc(-c2nnn[nH]2)ccc1-c1ccc(-n2ccnc2)cn1 |  |
| 7.54 |  |  |  |  |  | Cc1cc(C(=O)O)ccc1-c1ccc(-n2ccnc2)cc1 |  |
| 7.52 |  |  |  |  |  | O=C(O)c1ccc(-c2ccc(-n3ccnc3)cc2)c(Cl)c1 |  |
| 7.70 | 4 | 22 | 37 | 14 | 18 | Cc1cc(-n2ccnc2)ccc1-c1ccc(C(=O)O)cc1 | remaining at 1 h, 0.1 µM [2]: 100%; remaining at 1 h, 0.1 µM [3]: 48%; remaining at 1 h, 0.1 µM [4]: 64% |
| 7.66 |  |  |  |  |  | Clc1cc(-n2ccnc2)ccc1-c1ccc(-c2nnn[nH]2)cc1 |  |
| 7.96 | 30 | 41 | 78 | 52 | 88 | CCc1cc(-n2ccnc2)ccc1-c1ccc(-c2nnn[nH]2)cc1F | remaining at 1 h, 0.1 µM [2]: 97%; remaining at 1 h, 0.1 µM [3]: 78%; remaining at 1 h, 0.1 µM [4]: 80% |
| 7.85 | 26 | 39 | 86 | 44 | 84 | Cc1cc(-n2ccnc2)ccc1-c1ccc(-c2nnn[nH]2)cc1 | remaining at 1 h, 0.1 µM [2]: 99%; remaining at 1 h, 0.1 µM [3]: 44%; remaining at 1 h, 0.1 µM [4]: 68% |
| 7.92 | 43 | 47 | 83 | 63 | 76 | Cc1cc(-n2ccnc2)ccc1-c1ccc(-c2nnn[nH]2)cc1Cl |  |
| 7.85 | 19 | -15 | 60 | 12 | 45 | Cc1cc(-n2ccnc2)cnc1-c1ccc(-c2nnn[nH]2)cc1F | Vd [6]: 2.8 L/kg; remaining at 1 h, 0.1 µM [2]: 100%; half-life [7]: 1.9 h; Cmax [8]: 2560 ng/mL; bioavailability [9]: 49%; remaining at 1 h, 0.1 µM [3]: 42%; AUC(0-t) at 24 h [10]: 14200 ng·h/mL; clearance [11]: 17 mL/min/kg; remaining at 1 h, 0.1 µM [4]: 53%; Kp [12]: 0.62; Tmax [13]: 0.5 h; half-life [14]: 5.3 h |
| 7.70 |  |  |  |  |  | Fc1cc(-c2nnn[nH]2)ccc1-c1ccc(-n2ccnc2)cc1 |  |
